Inconclusive results and toxic doses are left out. Cut-off read from the data, not from the text of the source: active = T/C of 150% or more; inactive = T/C below 125%.
System: L1210 leukemia ip in BDF1 mice, survival T/C
Assay: NCI In Vivo Anticancer Drug Screen. Data for tumor model L1210 Leukemia (intraperitoneal) in B6D2F1 (BDF1) mice
Settings: endpoint: mean survival time, higher = longer survival
Outline: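 Survival endpoint. Drug-treated group vs vehicle group, expressed as T divided by C. Tumor passaged by transplantation.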

[1] = dose: 100.0 mg/kg/injection, schedule: Q01DX001 (ip), vehicle: saline
[2] = dose: 200.0 mg/kg/injection, schedule: Q01DX001 (ip), vehicle: saline
[3] = dose: 400.0 mg/kg/injection, schedule: Q01DX001 (ip), vehicle: saline
[4] = dose: 100.0 mg/kg/injection, schedule: Q01DX009 (ip), vehicle: saline with Tween-80
[5] = dose: 100.0 mg/kg/injection, schedule: Q04DX003 (ip), vehicle: saline
[6] = dose: 75.0 mg/kg/injection, schedule: Q01DX001 (ip), vehicle: saline
[7] = dose: 100.0 mg/kg/injection, schedule: Q01DX009 (ip), vehicle: Klucel (hydroxypropylcellulose) (HPC)
[8] = dose: 200.0 mg/kg/injection, schedule: Q01DX009 (ip), vehicle: Klucel (hydroxypropylcellulose) (HPC)
[9] = dose: 100.0 mg/kg/injection, schedule: Q04DX003 (ip), vehicle: saline with Tween-80
[10] = dose: 200.0 mg/kg/injection, schedule: Q04DX003 (ip), vehicle: saline with Tween-80
[11] = dose: 50.0 mg/kg/injection, schedule: Q01DX009 (ip), vehicle: saline with Tween-80
[12] = dose: 200.0 mg/kg/injection, schedule: Q01DX009 (ip), vehicle: saline with Tween-80
[13] = dose: 100.0 mg/kg/injection, schedule: Q04DX003 (ip), vehicle: Klucel (hydroxypropylcellulose) (HPC)
[14] = dose: 200.0 mg/kg/injection, schedule: Q04DX003 (ip), vehicle: Klucel (hydroxypropylcellulose) (HPC)
[15] = dose: 400.0 mg/kg/injection, schedule: Q04DX003 (ip), vehicle: Klucel (hydroxypropylcellulose) (HPC)
[16] = dose: 400.0 mg/kg/injection, schedule: Q01DX009 (ip), vehicle: Klucel (hydroxypropylcellulose) (HPC)
[17] = dose: 100.0 mg/kg/injection, schedule: Q01DX001 (ip), vehicle: carboxymethylcellulose (CMC)
[18] = dose: 200.0 mg/kg/injection, schedule: Q01DX001 (ip), vehicle: carboxymethylcellulose (CMC)
[19] = dose: 400.0 mg/kg/injection, schedule: Q01DX001 (ip), vehicle: carboxymethylcellulose (CMC)
[20] = dose: 400.0 mg/kg/injection, schedule: Q04DX002 (ip), vehicle: saline with Tween-80
[21] = dose: 400.0 mg/kg/injection, schedule: Q04DX003 (ip), vehicle: saline with Tween-80
[22] = dose: 400.0 mg/kg/injection, schedule: Q01DX009 (ip), vehicle: saline with Tween-80

Measured: T/C

Nc1nc2ncnc(N)c2nc1-c1ccc(N(CCO)CCO)cc1
inactive: [1] 104 % of control | [2] 95 % of control | [3] 100 % of control

O=C(CSC1=NCCN1)c1ccccc1
inactive: [4] 101 % of control

C/C=[N+](/[O-])CC
inactive: dose: 100.0 mg/kg/injection, schedule: Q01DX009 (ip), vehicle: saline 102 % of control | [5] 102 % of control | dose: 200.0 mg/kg/injection, schedule: Q01DX009 (ip), vehicle: saline 101 % of control | dose: 200.0 mg/kg/injection, schedule: Q04DX003 (ip), vehicle: saline 105 % of control | dose: 400.0 mg/kg/injection, schedule: Q01DX009 (ip), vehicle: saline 101 % of control | dose: 400.0 mg/kg/injection, schedule: Q04DX003 (ip), vehicle: saline 110 % of control

CCc1ccc(C)[n+](C)c1
inactive: [6] 96 % of control | dose: 150.0 mg/kg/injection, schedule: Q01DX001 (ip), vehicle: saline 95 % of control

O=C(Nc1ccccc1F)N(Cc1ccccc1)Cc1ccccc1
inactive: dose: 50.0 mg/kg/injection, schedule: Q01DX009 (ip), vehicle: Klucel (hydroxypropylcellulose) (HPC) 96 % of control | [7] 104 % of control | [8] 101 % of control

O=C1CCCC(=O)N1.[Tl]
inactive: dose: 3.12 mg/kg/injection, schedule: Q04DX003 (ip), vehicle: water 108 % of control | dose: 6.25 mg/kg/injection, schedule: Q04DX003 (ip), vehicle: water 102 % of control | dose: 12.5 mg/kg/injection, schedule: Q04DX003 (ip), vehicle: water 96 % of control

COc1ccc(C(=O)c2no[n+]([O-])c2C(=O)c2ccc(OC)cc2)cc1
inactive: [9] 90 % of control | [10] 94 % of control

Oc1ccc2nocc2c1N=Nc1ccccc1
inactive: [11] 98 % of control | [4] 98 % of control | [12] 95 % of control

S=C(NCCS)Nc1ccccc1
inactive: [13] 98 % of control | [14] 105 % of control | [15] 99 % of control

C=CCCCCCCCC[CH2][Sn]([Cl])([Cl])[Cl]
inactive: dose: 50.0 mg/kg/injection, schedule: Q04DX003 (ip), vehicle: saline 93 % of control | [5] 101 % of control

O=[N+]([O-])c1[nH]cnc1S(=O)(=O)Cl
inactive: [1] 94 % of control | [2] 94 % of control | [3] 97 % of control

CSc1ccc(NC(=O)COc2ccccc2)cc1
inactive: [7] 102 % of control | [8] 98 % of control | [16] 98 % of control

O=S(=O)(c1ccccc1)c1nn2nnnc2c2ccccc12
inactive: dose: 50.0 mg/kg/injection, schedule: Q04DX003 (ip), vehicle: saline with Tween-80 107 % of control | [9] 104 % of control | [10] 103 % of control

C1=C(N2CCCCC2)C2CCC1C2 (stereo unspecified)
inactive: [6] 99 % of control

O=C1c2c(O)ccc([N+](=O)[O-])c2C(=O)c2c([N+](=O)[O-])ccc(O)c21
inactive: [7] 93 % of control | [13] 106 % of control | [8] 105 % of control | [14] 95 % of control | [16] 103 % of control | [15] 95 % of control

COC(=O)c1cc(C)cc(N2c3ccccc3-c3cc(C)ccc3S2(=O)=O)c1C
inactive: [17] 104 % of control | [18] 102 % of control | [19] 96 % of control

O=C(N/N=C/c1ccccc1O)C(O)C(O)C(O)C(O)CO (stereo unspecified)
inactive: dose: 100.0 mg/kg/injection, schedule: Q04DX002 (ip), vehicle: saline with Tween-80 92 % of control | dose: 200.0 mg/kg/injection, schedule: Q04DX002 (ip), vehicle: saline with Tween-80 106 % of control | [20] 95 % of control

CCOC(=O)c1cc(C(=O)O)[nH]c(=O)c1C#N
inactive: [9] 97 % of control | [21] 95 % of control

O=C(O)c1ccsc1Cc1ccsc1
inactive: [11] 89 % of control | [4] 96 % of control | [12] 86 % of control

C(=N\Nc1nn[nH]n1)/c1ccncc1
inactive: [4] 98 % of control | [9] 95 % of control | dose: 132.0 mg/kg/injection, schedule: Q01DX009 (ip), vehicle: saline with Tween-80 102 % of control | [10] 96 % of control | dose: 300.0 mg/kg/injection, schedule: Q01DX009 (ip), vehicle: saline with Tween-80 97 % of control | [22] 100 % of control | [21] 90 % of control

CC/C(=C(\CC)c1ccc(OCC(=O)N(CCCl)CCCl)cc1)c1ccc(OCC(=O)N(CCCl)CCCl)cc1
inactive: dose: 5.0 mg/kg/injection, schedule: Q04DX002 (ip), vehicle: saline 105 % of control | dose: 10.0 mg/kg/injection, schedule: Q04DX002 (ip), vehicle: saline 97 % of control | dose: 20.0 mg/kg/injection, schedule: Q04DX002 (ip), vehicle: saline 94 % of control

CCCC(=O)OC1CC(C)CCC1C(C)C (stereo unspecified)
inactive: dose: 25.6 mg/kg/injection, schedule: Q04DX002 (ip), vehicle: saline with Tween-80 96 % of control | dose: 64.0 mg/kg/injection, schedule: Q04DX002 (ip), vehicle: saline with Tween-80 96 % of control | [4] 90 % of control | [9] 88 % of control | dose: 160.0 mg/kg/injection, schedule: Q04DX002 (ip), vehicle: saline with Tween-80 92 % of control | [12] 94 % of control | [10] 94 % of control | [22] 92 % of control | [20] 96 % of control | [21] 100 % of control

Nc1ncnc(N)c1NC(=O)c1ccc(OCCCOc2ccccc2)c(Cl)c1
inactive: [17] 96 % of control | [18] 101 % of control | [19] 96 % of control

ClCCCSCCCCl
inactive: dose: 50.0 mg/kg/injection, schedule: Q01DX001 (ip), vehicle: saline 103 % of control | [1] 112 % of control | [2] 124 % of control | [3] 95 % of control

CCCCCCCCCCCCCCCCCC[n+]1cccc(C(=O)N2CCOCC2)c1
inactive: dose: 2.0 mg/kg/injection, schedule: Q01DX009 (ip), vehicle: Klucel (hydroxypropylcellulose) (HPC) 97 % of control | dose: 4.0 mg/kg/injection, schedule: Q01DX009 (ip), vehicle: Klucel (hydroxypropylcellulose) (HPC) 110 % of control | dose: 8.0 mg/kg/injection, schedule: Q01DX009 (ip), vehicle: Klucel (hydroxypropylcellulose) (HPC) 98 % of control | dose: 12.5 mg/kg/injection, schedule: Q04DX003 (ip), vehicle: Klucel (hydroxypropylcellulose) (HPC) 88 % of control | dose: 16.0 mg/kg/injection, schedule: Q01DX009 (ip), vehicle: Klucel (hydroxypropylcellulose) (HPC) 104 % of control | dose: 25.0 mg/kg/injection, schedule: Q04DX003 (ip), vehicle: Klucel (hydroxypropylcellulose) (HPC) 96 % of control | dose: 32.0 mg/kg/injection, schedule: Q01DX009 (ip), vehicle: Klucel (hydroxypropylcellulose) (HPC) 90 % of control | dose: 50.0 mg/kg/injection, schedule: Q04DX003 (ip), vehicle: Klucel (hydroxypropylcellulose) (HPC) 93 % of control | [13] 92 % of control
